One may read the EC50 as the midpoint of the concentration-response curve. For orientation: Emax means the greatest response seen or fitted, relative to the assay's reference. What is called IC50 is the concentration needed to halve the response being measured. The low end stands for greater potency, the high end for weaker potency.

SMILES strings stand for the structures.

Format in all cases: cell-based
The target in one test is T1, DOR receptor (Homo sapiens, UniProt P41143).
T1 construct: expressed in transfected cells; host or cells: HEK293
As to the kind of experiment: DOR activity test: HEK293/DOR/CRE luciferase reporter, cAMP levels. The settings on record: for Emax: HEK293, maximum effect of morphine is 100%. Here is the method: (§1) The experiment objective is to determine the activity of the compounds of the present invention on agonizing KOR receptor and DOR receptor, and affecting downstream cAMP levels.
(§2) 90 μl of HEK293/KOR/CRE or HEK293/DOR/CRE (CRE cDNA purchased from Promega, product number E8471, KOR cDNA and DOR cDNA were constructed by our company) cells were inoculated in a 96-well plate with a density of 1×10^4 cells/well. Then, the cells were incubated overnight at 37° C., in 5% CO2. The drug was prepared as a 20 mM stock solution that was later diluted with 100% DMSO to a 200×concentration gradient, and then diluted with a 20-fold DMEM/high glucose (SH30243.01B, Hyclone) medium. The cell culture plate inoculated on the first day was taken out, and […] of the diluted drug or control (0.5% DMSO) was added to each well. The plate was gently shaken and placed in a incubator at 37° C., 5% CO2 for 4 hours. Finally, 100 μl of a detection reagent ONE-Glo (E6120, Promega) was added to each well, and the plate was placed at room temperature for 5 minutes. The absorbance value was measured by the cold light model of a microplate reader (PE, Victor3). The EC50 value of the compound was calculated by Graphpad Prism software according to each concentration of the compound and the corresponding signal value. Emax is the maximum effect of the compound on cAMP level changes.
(§3) The activity of the compounds of the present invention on agonizing KOR receptor or DOR receptor and affecting downstream cAMP levels was determined by the above test, and the EC50 values are shown in Table 1.2.
On the technique in general: A reporter such as luciferase makes a cellular process visible.

A further test concerns the target T2, KOR receptor (Homo sapiens, UniProt P41145).
T2 construct: expressed in transfected cells; host or cells: HEK293
As to the kind of experiment: KOR activity test: HEK293/KOR/CRE luciferase reporter, cAMP levels. The settings on record: for Emax: HEK293, maximum effect of morphine is 100%. The protocol: as §1, §2, §3

The target of the next test is T3, hERG potassium channel (Homo sapiens, UniProt Q12809).
T3 construct: expressed in transfected cells; host or cells: HEK293
The test can be described thus: Blocking of hERG potassium current, automatic patch clamp on HEK293-hERG cells. Here is the method: The blocking effect of the compounds of the present invention and the positive compound TRV-130 (Journal of Pharmacology and Experimental Therapeutics, Volume 344, Issue 3, Pages 708-717, 2013) on hERG potassium current was tested on a stable cell line transfected with hERG potassium channel using an automatic patch clamp.
HEK293-hERG stabilized cells were subcultured at a density of 1:4 in a MEM/EBSS medium (10% FBS, 400 μg/ml G418, 1% MEM nonessential amino acid solution (100×), 1% sodium pyruvate solution) for 48-72 hours, then the automatic patch clamp experiment was performed. The cells were digested with 0.25% trypsin on the day of the experiment, then the cells were collected by centrifugation and resuspended with extracellular fluid (140 mM NaCl, 4 mM KCl, 1 mM MgCl2, 2 mM CaCl2, 5 mM D-glucose monohydrate, 10 mM Hepes, pH 7.4, 298 mOsmol) into a cell suspension. The cell suspension was placed on the cell bank of the Patchliner instrument, and the cells were added to the chip (NPC-16) by the negative pressure controller of the Patchliner instrument, with negative pressure attracting individual cells to the small hole of the chip. After the whole cell model was formed, the instrument generated the hERG current according to the preset hERG current and voltage program, and then the instrument perfused the compound from low concentration to high concentration automatically. HEAK Patchmaster, HEAK EPC10 patch clamp amplifier (Nanion), Pathliner software, and a data analysis software provided by Pathcontrol HTsoftware were used to analyze the current of the compounds at different concentrations and the current of the blank control.
The blocking effect of the compounds of the present invention on hERG potassium current was determined by the above test, and the IC50 values are shown in Table 3.
On the technique in general: hERG is a cardiac potassium channel; its block is linked to QT prolongation.

Another test addresses T4, MOR receptor (Homo sapiens, UniProt P35372).
T4 construct: host or cells: CHO-K1
The test can be described thus: Activation of the β-arrestin signaling pathway of MOR receptor (CHO-K1 OPRM1 β-Arrestin cells, DiscoveRX). Conditions: for Emax: maximum effect of morphine is 100%. Here is the method:
The experiment objective is to determine the activity of the compounds of the present invention on activating the β-arrestin signaling pathway of MOR receptor.
The drug was prepared as a 20 mM stock solution that was later diluted with 100% DMSO to a 200×concentration gradient, and then diluted with a 20-fold AssayComplete™ Cell Plating 2 Reagent (93-0563R2B, DiscoveRX) medium. The cell culture plate inoculated on the first day was taken out, and 10 μl of the diluted drug or control (0.5% DMSO) was added to each well. The plate was gently shaken and placed in an incubator at 37° C., 5% CO2 for 90 minutes. Finally, 50 μL of a detection reagent (93-0001, DiscoveRX) were added to each well, and the plate was placed at room temperature for 60 minutes. The absorbance values were measured by the cold light model of a microplate reader (PE, Victor3). The EC50 values of the compounds were calculated by Graphpad Prism software according to each concentration of the compound and the corresponding signal value.

In the next test the target is T5, μ-opioid receptors (MOR) (Homo sapiens, UniProt P35372).
T5 construct: host or cells: HEK293
The test can be described thus: MOR activity test: HEK293/MOR/CRE luciferase reporter, agonizing MOR and affecting downstream cAMP levels. The settings on record: for Emax: HEK293, maximum effect of TRV-130 is 100%, read-out: Emax on agonizing MOR receptor and affecting cAMP levels. An excerpt: The compounds of the present invention can activate μ-opioid receptors (MOR). Activated MOR can regulate intracellular cAMP levels, and cAMP enters the nucleus and binds to the CRE region of the reporter gene luciferase, thereby initiating the expression of the reporter gene. Luciferase can react with its substrate to emit fluorescence, and the measured fluorescence signals reflect the agonistic activity of the compounds.
The activity of the test example compounds on agonizing MOR and affecting downstream cAMP levels was tested by the following method.
MOR/pcDNA3.1 (+) and CRE/pGL4.29 were transferred into HEK293 cells. G418 and hygromycin were added into the culture medium, and HEK293/MOR/CRE monoclonal cell lines were screened in a 96-well cell culture plate.
HEK293/MOR/CRE monoclonal cells were cultured in a DMEM/high glucose medium (10% FBS, 1 mg/ml G418, 200 μg/ml hygromycin, mixed uniformly), and passaged every 3 days. On the day of the experiment, a cell suspension was prepared with a fresh cell medium, added to a 96 well plate (BD, #356692) with 20,000 cells/well, and incubated in 5% CO2 at 37° C. On the second day, the compound was dissolved in pure DMSO at a concentration of 20 mM, then formulated with DMSO to a first concentration of 4 mM and diluted in 10 fold concentration gradient to 6 concentrations. Then, 90 μl of DMSO was added to blank and control wells. Then, formulated compound was prepared by adding 2.5 μl of the compound solutions formulated in DMSO at a gradient concentration to 97.5 μl of a fresh cell culture medium containing 5 μM foscolin. Then, 10 μl of the formulated compound was added to the cell culture plate to make the final concentration of the compound 10000, 1000, 100, 10, 1, 0.1, or 0.01 nM, and the plate was incubated at 37° C., in 5% CO2 for 5 hours. In a 96-well cell culture plate, 100 μl of luciferase assay solution (Promega, # E6110) was added to each well. The plate was placed in the dark at room temperature for 10-15 minutes, blowed and aspirated 10 times, and 100 μl were pipetted to a 96 well white plate. The chemiluminescence signal values were read in a microplate reader (PE, Victor3), and the read data was processed using software.
The activity of the compounds of the present invention on agonizing MOR and affecting downstream cAMP levels was determined by the above test, and the EC50 values are shown in Table 1.1.

T1 sequence (P41143 whole entry): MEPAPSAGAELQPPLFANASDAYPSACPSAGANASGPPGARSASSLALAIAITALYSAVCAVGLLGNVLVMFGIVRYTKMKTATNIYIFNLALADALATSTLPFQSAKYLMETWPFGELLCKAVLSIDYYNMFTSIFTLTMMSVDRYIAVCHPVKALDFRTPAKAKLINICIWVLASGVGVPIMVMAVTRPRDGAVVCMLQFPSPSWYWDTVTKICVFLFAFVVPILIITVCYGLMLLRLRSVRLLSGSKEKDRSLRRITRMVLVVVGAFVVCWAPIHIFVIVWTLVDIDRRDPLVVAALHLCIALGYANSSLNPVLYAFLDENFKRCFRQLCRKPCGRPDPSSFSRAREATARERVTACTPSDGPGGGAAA
T2 sequence (P41145 whole entry): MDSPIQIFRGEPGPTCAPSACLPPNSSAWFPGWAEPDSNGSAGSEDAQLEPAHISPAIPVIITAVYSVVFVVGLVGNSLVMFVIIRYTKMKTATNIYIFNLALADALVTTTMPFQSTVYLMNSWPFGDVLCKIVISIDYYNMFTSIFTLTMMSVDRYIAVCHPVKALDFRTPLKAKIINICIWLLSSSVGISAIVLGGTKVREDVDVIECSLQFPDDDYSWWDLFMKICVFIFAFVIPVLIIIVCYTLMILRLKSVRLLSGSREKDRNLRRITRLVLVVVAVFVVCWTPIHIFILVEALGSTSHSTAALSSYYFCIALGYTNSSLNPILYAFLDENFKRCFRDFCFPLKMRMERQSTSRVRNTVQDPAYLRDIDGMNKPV
T3 sequence (Q12809 whole entry): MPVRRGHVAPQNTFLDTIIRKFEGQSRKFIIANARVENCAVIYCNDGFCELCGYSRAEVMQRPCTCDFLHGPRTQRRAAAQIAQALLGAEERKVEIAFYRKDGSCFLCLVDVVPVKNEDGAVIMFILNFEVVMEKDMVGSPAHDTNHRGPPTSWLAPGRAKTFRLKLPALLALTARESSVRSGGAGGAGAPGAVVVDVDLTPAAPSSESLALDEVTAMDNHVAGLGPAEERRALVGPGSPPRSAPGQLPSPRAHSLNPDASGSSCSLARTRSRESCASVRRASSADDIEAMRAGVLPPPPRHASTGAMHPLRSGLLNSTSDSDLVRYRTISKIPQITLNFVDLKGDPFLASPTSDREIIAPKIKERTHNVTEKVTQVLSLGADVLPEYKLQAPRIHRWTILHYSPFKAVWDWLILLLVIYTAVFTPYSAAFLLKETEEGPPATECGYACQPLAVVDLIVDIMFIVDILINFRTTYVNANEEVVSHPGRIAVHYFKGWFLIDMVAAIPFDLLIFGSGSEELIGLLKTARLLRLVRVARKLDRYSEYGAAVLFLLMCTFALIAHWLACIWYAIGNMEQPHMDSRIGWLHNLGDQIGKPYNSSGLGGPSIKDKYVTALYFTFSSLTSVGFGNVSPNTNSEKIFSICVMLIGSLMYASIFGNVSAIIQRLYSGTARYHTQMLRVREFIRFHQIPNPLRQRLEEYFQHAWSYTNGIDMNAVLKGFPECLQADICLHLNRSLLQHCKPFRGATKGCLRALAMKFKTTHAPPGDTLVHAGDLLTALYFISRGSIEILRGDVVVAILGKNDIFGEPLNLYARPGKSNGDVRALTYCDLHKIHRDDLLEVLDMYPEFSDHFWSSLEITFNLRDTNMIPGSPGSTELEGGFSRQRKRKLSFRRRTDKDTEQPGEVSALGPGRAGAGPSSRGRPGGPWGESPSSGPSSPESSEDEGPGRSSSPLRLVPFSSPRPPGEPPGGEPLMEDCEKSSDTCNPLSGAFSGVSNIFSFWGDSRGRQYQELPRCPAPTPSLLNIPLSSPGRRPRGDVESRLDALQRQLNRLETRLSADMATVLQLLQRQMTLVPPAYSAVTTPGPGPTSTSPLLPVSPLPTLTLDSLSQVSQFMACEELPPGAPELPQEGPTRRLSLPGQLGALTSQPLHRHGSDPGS
T4 sequence (P35372 whole entry): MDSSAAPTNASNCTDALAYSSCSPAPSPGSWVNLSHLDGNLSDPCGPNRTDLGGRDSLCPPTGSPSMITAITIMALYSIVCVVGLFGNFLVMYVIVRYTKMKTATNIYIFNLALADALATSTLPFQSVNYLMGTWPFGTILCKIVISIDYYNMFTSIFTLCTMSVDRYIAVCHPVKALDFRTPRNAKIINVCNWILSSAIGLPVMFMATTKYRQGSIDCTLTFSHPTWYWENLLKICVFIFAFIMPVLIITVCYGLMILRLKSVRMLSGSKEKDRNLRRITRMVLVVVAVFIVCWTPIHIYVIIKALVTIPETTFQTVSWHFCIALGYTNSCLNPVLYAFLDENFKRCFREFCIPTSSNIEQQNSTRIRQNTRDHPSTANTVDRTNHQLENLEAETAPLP
T5 sequence (P35372 whole entry): as above

In the case of `CO[C@H]1CC[C@H](NCC[C@@]2(c3ccccn3)CCOC3(CCCC3)C2)c2ccccc21` [Example 14, (1S,4S)-4-methoxy-N-(2-((R)-9-(pyridin-2-yl)-6-oxaspiro[4.5]decan-9-yl)ethyl)-1,2,3,4-tetrahydronaphthalen-1-amine], the EC50 at DOR receptor stood at 1510 nM; on KOR receptor, 1470 nM; on MOR receptor it was 26 nM; on μ-opioid receptors (MOR), 3 nM. In addition, the Emax on DOR receptor worked out at 91%; at KOR receptor it was 74%; at MOR receptor, 24%; on μ-opioid receptors (MOR), 109%. This compound gave an IC50 against hERG potassium channel of 8.6 µM.

Take `O=C1CC[C@H](NCC[C@@]2(c3ccccn3)CCOC3(CCCC3)C2)c2ccccc21` [Example 11, (S)-4-((2-((R)-9-(pyridin-2-yl)-6-oxaspiro[4.5]decan-9-yl)ethyl)amino)-3,4-dihydronaphthalen-1(2H)-one]: the half-maximal effective concentration (EC50) on DOR receptor stood at 1920 nM; at KOR receptor it was 277 nM; on MOR receptor it was 305 nM; on μ-opioid receptors (MOR), 17 nM. Further, the Emax stood at 80% at DOR receptor, 98% on KOR receptor, 37% at MOR receptor and 112% at μ-opioid receptors (MOR). The same compound came in with an IC50 on hERG potassium channel of 4.1 µM.

As for `COC[C@H]1CC[C@H](NCC[C@@]2(c3ccccn3)CCOC3(CCCC3)C2)c2ccccc21` [Example 22, (1S,4S)-4-(methoxymethyl)-N-(2-((R)-9-(pyridin-2-yl)-6-oxaspiro[4.5]decan-9-yl)ethyl)-1,2,3,4-tetrahydronaphthalen-1-amine], the EC50 on DOR receptor is 2400 nM; at KOR receptor it was 3090 nM; on MOR receptor, 41 nM; at μ-opioid receptors (MOR), 4 nM. The Emax turned out to be 102% on DOR receptor, 97% at KOR receptor, 18% on MOR receptor and 103% on μ-opioid receptors (MOR). 3.8 µM corresponded to half-maximal inhibition at hERG potassium channel (IC50).

The values above are taken from patent publication US10442793B2, “Oxa spiro derivative, preparation method therefor, and applications thereof in medicines” (Jiangsu Hengrui Medicine Co., Ltd., priority 2015, dated 2019).
